*1 amine or outer side, *2 acyl side, *3 side chain or, on linkers, in order; H or OH if unused. Where a SMILES comes first, the peptide text is derived from it. Bridges are numbered along the chain shown (N, C = ends). Roman numbers before positions name the chains, in order. [ ]: non-standard residue; d: D form. Actinocin(1to9) = Cc1c2oc3c(C)ccc(C(=O)[*:2])c3nc-2c(C(=O)[*:1])c(N)c1=O; NMeV = CN[C@H](C(=O)O)C(C)C; Sar = CNCC(=O)O
Assays:
[1] = DRUGMATRIX: Phosphodiesterase PDE4 enzyme inhibition (substrate: [3H]cAMP + cAMP); conditions: u-937, Not Active = under 50% inhibition at 10 µM
[2] = DRUGMATRIX: Interleukin IL-1 radioligand binding (ligand: [125I] interleukin 1beta); type: cell membranes, Membrane; conditions: nih3t3; Not Active = under 50% inhibition at 10 µM
[3] = target: T1, Leukotriene C4 synthase (Cavia porcellus, UniProt A6XA80); type: tissue-based, Lung;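 further: enzyme inhibition assay of leukotriene C4 synthase, using LTA4 as the substrate; in other assays of this panel Not Active means under 50% inhibition at 10 µM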
T1 sequence (A6XA80 whole entry): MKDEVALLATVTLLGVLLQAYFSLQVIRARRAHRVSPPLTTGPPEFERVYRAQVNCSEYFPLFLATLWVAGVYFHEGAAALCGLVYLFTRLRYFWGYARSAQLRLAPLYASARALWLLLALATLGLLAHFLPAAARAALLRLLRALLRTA

[4] = target: Mu-type opioid receptor (Homo sapiens, UniProt P35372); experiment: DRUGMATRIX: Opiate mu (OP3, MOP) radioligand binding (ligand: [3H] Diprenorphine); type: cell membranes, CHO-K1, Membrane; conditions: Not Active = under 50% inhibition at 10 µM
[5] = target: T2, Substance-K receptor (Homo sapiens, UniProt P21452); type: cell membranes, CHO, Membrane; conditions: cho; further: in other assays of this panel Not Active means under 50% inhibition at 10 µM
T2 sequence (P21452 whole entry): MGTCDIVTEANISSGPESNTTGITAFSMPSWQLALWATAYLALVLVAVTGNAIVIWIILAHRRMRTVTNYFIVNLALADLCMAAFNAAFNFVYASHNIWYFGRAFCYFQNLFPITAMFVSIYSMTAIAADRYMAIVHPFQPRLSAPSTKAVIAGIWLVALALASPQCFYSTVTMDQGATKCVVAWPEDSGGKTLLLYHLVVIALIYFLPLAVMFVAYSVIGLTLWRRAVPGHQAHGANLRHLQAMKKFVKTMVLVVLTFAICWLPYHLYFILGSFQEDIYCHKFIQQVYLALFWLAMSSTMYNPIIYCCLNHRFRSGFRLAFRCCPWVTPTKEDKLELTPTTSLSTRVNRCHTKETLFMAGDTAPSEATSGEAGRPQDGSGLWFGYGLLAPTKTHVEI

[6] = DRUGMATRIX: Sigma2 radioligand binding (ligand: [3H] Ifenprodil); type: cell membranes, Rattus norvegicus, Wistar, Brain, Membrane; conditions: Not Active = under 50% inhibition at 10 µM
[7] = DRUGMATRIX: Glutamate, NMDA, Agonism radioligand binding (ligand: [3H] CGP-39653); type: cell membranes, Rattus norvegicus, Wistar, Cerebral cortex, Membrane; conditions: Not Active = under 50% inhibition at 10 µM

Chain of Mu-type opioid receptor (P35372 whole entry): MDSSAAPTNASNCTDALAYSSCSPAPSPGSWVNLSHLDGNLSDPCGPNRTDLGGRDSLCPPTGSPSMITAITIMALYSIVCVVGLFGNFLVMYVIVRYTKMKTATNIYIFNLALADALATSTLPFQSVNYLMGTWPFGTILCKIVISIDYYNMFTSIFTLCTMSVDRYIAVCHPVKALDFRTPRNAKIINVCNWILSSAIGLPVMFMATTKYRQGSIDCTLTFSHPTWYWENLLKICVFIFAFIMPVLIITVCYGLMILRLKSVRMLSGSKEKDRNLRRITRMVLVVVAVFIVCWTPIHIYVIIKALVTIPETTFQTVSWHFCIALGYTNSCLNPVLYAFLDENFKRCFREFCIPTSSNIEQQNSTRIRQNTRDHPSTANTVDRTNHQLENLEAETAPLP

Compound | IC50 [1] | Ki [1] | IC50 [2] | Ki [2] | IC50 [3] | IC50 ([4]; cho-k1) | IC50 [5] | IC50 [6] | Ki [6] | IC50 [7] | Ki [7] | IC50 ([6]; read-out: IC50) [nM] | Ki ([6]; read-out: Ki) [nM] | IC50 ([1]; read-out: IC50) [nM] | Ki [4] [nM] | IC50 ([4]; read-out: IC50) [nM]
CN(C)C(=O)Oc1cc(OC(=O)N(C)C)cc(C(O)CNC(C)(C)C)c1 (configuration not stated) [BAMBUTEROL] | Not Active | Not Active | Not Active | Not Active | Not Active | Not Active | Not Active | Not Active | Not Active | Not Active | Not Active |  |  |  |  | 
c1ccc2c(c1)c1cccc3ccc4cccc2c4c31 [BENZO[E]PYRENE] | Not Active | Not Active | Not Active | Not Active | Not Active | Not Active | Not Active | Not Active | Not Active | Not Active | Not Active |  |  |  |  | 
CNCCc1ccccn1 [BETAHISTINE] | Not Active | Not Active | Not Active | Not Active | Not Active | Not Active | Not Active | Not Active | Not Active | Not Active | Not Active |  |  |  |  | 
CC(C)C(Br)C(=O)NC(N)=O (configuration not stated) [BROMISOVALUM] | Not Active | Not Active | Not Active | Not Active | Not Active | Not Active | Not Active | Not Active | Not Active | Not Active | Not Active |  |  |  |  | 
CCCC1O[C@@H]2C[C@H]3[C@@H]4CCC5=CC(=O)C=C[C@]5(C)[C@H]4[C@@H](O)C[C@]3(C)[C@]2(C(=O)CO)O1 (some centres not stated) [BUDESONIDE] | Not Active | Not Active | Not Active | Not Active | Not Active | Not Active | Not Active | Not Active | Not Active | Not Active | Not Active |  |  |  |  | 
CC(NC(C)(C)C)C(=O)c1cccc(Cl)c1 (configuration not stated) [BUPROPION] | Not Active | Not Active | Not Active | Not Active | Not Active | Not Active | Not Active |  |  | Not Active | Not Active | 2320 | 1420 |  |  | 
CN(Cc1ccc(C(C)(C)C)cc1)Cc1cccc2ccccc12 [BUTENAFINE] | Not Active | Not Active | Not Active | Not Active | Not Active | Not Active | Not Active |  |  | Not Active | Not Active | 255 | 157 |  |  | 
C[C@H](CS)C(=O)N1CCC[C@H]1C(=O)O [CAPTOPRIL] | Not Active | Not Active | Not Active | Not Active | Not Active | Not Active | Not Active | Not Active | Not Active | Not Active | Not Active |  |  |  |  | 
Cc1ccc(-c2cc(C(F)(F)F)nn2-c2ccc(S(N)(=O)=O)cc2)cc1 [CELECOXIB] |  |  | Not Active | Not Active | Not Active | Not Active | Not Active | Not Active | Not Active | Not Active | Not Active |  |  | 9260 |  | 
C[C@H](CCC(=O)O)[C@H]1CC[C@H]2[C@@H]3[C@H](O)C[C@@H]4C[C@H](O)CC[C@]4(C)[C@H]3C[C@H](O)[C@]12C [CHOLIC ACID] | Not Active | Not Active | Not Active | Not Active | Not Active | Not Active | Not Active | Not Active | Not Active | Not Active | Not Active |  |  |  |  | 
Cc1cc(C2CCCCC2)n(O)c(=O)c1 [CICLOPIROX] | Not Active | Not Active | Not Active | Not Active | Not Active | Not Active | Not Active | Not Active | Not Active | Not Active | Not Active |  |  |  |  | 
CC(C)(Oc1ccc(Cl)cc1)C(=O)O [CLOFIBRIC ACID] | Not Active | Not Active | Not Active | Not Active | Not Active | Not Active | Not Active | Not Active | Not Active | Not Active | Not Active |  |  |  |  | 
Clc1cccc(Cl)c1NC1=NCCN1 [CLONIDINE] | Not Active | Not Active | Not Active | Not Active | Not Active | Not Active | Not Active | Not Active | Not Active | Not Active | Not Active |  |  |  |  | 
Cc1cc(C(C#N)c2ccc(Cl)cc2)c(Cl)cc1NC(=O)c1cc(I)cc(I)c1O (configuration not stated) [CLOSANTEL] | Not Active | Not Active | Not Active | Not Active | Not Active | Not Active | Not Active | Not Active | Not Active | Not Active | Not Active |  |  |  |  | 
Cc1onc(-c2ccccc2Cl)c1C(=O)N[C@@H]1C(=O)N2[C@@H]1SC(C)(C)[C@@H]2C(=O)O [CLOXACILLIN] | Not Active | Not Active | Not Active | Not Active | Not Active | Not Active | Not Active | Not Active | Not Active | Not Active | Not Active |  |  |  |  | 
CC1CC(OC(=O)C(O)c2ccccc2)CC(C)(C)C1 (configuration not stated) [CYCLANDELATE] | Not Active | Not Active | Not Active | Not Active | Not Active | Not Active | Not Active | Not Active | Not Active | Not Active | Not Active |  |  |  |  | 
Cc1c2oc3c(C)ccc(C(=O)N[C@@H]4C(=O)N[C@H](C(C)C)C(=O)N5CCC[C@H]5C(=O)N(C)CC(=O)N(C)[C@@H](C(C)C)C(=O)O[C@@H]4C)c3nc-2c(C(=O)N[C@@H]2C(=O)N[C@H](C(C)C)C(=O)N3CCC[C@H]3C(=O)N(C)CC(=O)N(C)[C@@H](C(C)C)C(=O)O[C@@H]2C)c(N)c1=O [DACTINOMYCIN] (I: T[dV]P[Sar][NMeV] / II: T[dV]P[Sar][NMeV]; ester I:1-I:C, II:1-II:C; linker I:N-II:N via Actinocin(1to9)) | Not Active | Not Active | Not Active | Not Active | Not Active | Not Active | Not Active | Not Active | Not Active | Not Active | Not Active |  |  |  |  | 
Cc1c(O)c(=O)ccn1C [DEFERIPRONE] | Not Active | Not Active | Not Active | Not Active | Not Active | Not Active | Not Active | Not Active | Not Active | Not Active | Not Active |  |  |  |  | 
CNCCCN1c2ccccc2CCc2ccccc21 [DESIPRAMINE] | Not Active | Not Active | Not Active | Not Active | Not Active | Not Active | Not Active | Not Active | Not Active | Not Active | Not Active |  |  |  |  | 
O=c1oc2ccccc2c(O)c1Cc1c(O)c2ccccc2oc1=O [DICUMAROL] | Not Active | Not Active | Not Active | Not Active | Not Active | Not Active | Not Active | Not Active | Not Active | Not Active | Not Active |  |  |  |  | 
C[C@H]1O[C@@H](O[C@H]2[C@@H](O)C[C@H](O[C@H]3[C@@H](O)C[C@H](O[C@H]4CC[C@@]5(C)[C@H](CC[C@@H]6[C@@H]5C[C@@H](O)[C@]5(C)[C@@H](C7=CC(=O)OC7)CC[C@]65O)C4)O[C@@H]3C)O[C@@H]2C)C[C@H](O)[C@@H]1O [DIGOXIN] | Not Active | Not Active | Not Active | Not Active | Not Active | Not Active | Not Active | Not Active | Not Active | Not Active | Not Active |  |  |  |  | 
CC(C)[C@@]1(NC(=O)[C@@H]2C[C@@H]3c4cccc5[nH]cc(c45)C[C@H]3N(C)C2)O[C@@]2(O)[C@@H]3CCCN3C(=O)[C@H](Cc3ccccc3)N2C1=O.CS(=O)(=O)O [DIHYDROERGOCRISTINE MESYLATE] | Not Active | Not Active | Not Active | Not Active | Not Active |  | Not Active | Not Active | Not Active | Not Active | Not Active |  |  |  | 345 | 850
